Measurements published in patent publication US20250215032A1, “PHOSPHORYLPURINONE COMPOUNDS FOR THE TREATMENT OF CANCER” (Hoffmann-La Roche Inc., priority 2022, published 2025).
≈ marks a conversion by molar mass, not a printed value. Read-outs that look alike come from different tables or passages of the source.

Assays:
[1] = Lyophilisation solubility assay (LYSA), kinetic solubility; type: physicochemical; settings: aqueous buffer; 0.05 M phosphate buffer (pH 6.5), from 10 mM DMSO stock after evaporation
From the text: The solubility of a substance can be broadly defined as the maximum amount of the substance that dissolves in a specified volume of solvent. However, it is important to understand that the solubility of a compound can vary drastically depending on the condition of the solvent (e.g. temperature and pH) and the physiochemical properties of the compound (e.g. ionisation and crystallinity). These critical factors need to be considered during solubility determination in order to generate high quality solubility data that will be useful in the progression of compounds through the discovery and development stages. The kinetic solubility of a compound is the maximum solubility of the fastest precipitating species of the compound; this is often measured using a stock solution of the compound dissolved in an organic solvent, typically dimethyl sulfoxide (DMSO), as the starting material. […] The precipitate formed, which is rarely determined during the assessment, could be any combination of various possible solid states of the compound. Given the level of supersaturation that could occur when an organic solvent is diluted in water, kinetic solubility values are typically higher than the corresponding thermodynamic (equilibrium) solubility values. Solubility assays in the early discovery process often determine kinetic solubility. The lyophilisation solubility assay (LYSA) is a high throughput kinetic solubility assay for the early drug discovery process.
Samples were prepared in duplicate from 10 mM DMSO stock solution. After evaporation of DMSO with a centrifugal vacuum evaporator, the compounds were solved in 0.05 M phosphate buffer (pH 6.5), stirred for one hour and shaken for two hours. After one night, the solutions were filtered using a microtiter filter plate. Then the filtrate and its 1/10 dilution were analyzed by HPLC-UV. […] The results were in μg/mL. […] It should be noted that metastable solid phases may form during the evaporation step, and the method might therefore produce higher solubility values than assays using the stable polymorph as the starting material.

[2] = Thermodynamic solubility assay (THESA), equilibrium solubility; type: physicochemical; settings: 22 °C, aqueous buffer, thermodynamic from solid; 50 mM phosphate buffer (pH 6.5), room temperature (22±2° C.)
Method: The thermodynamic (equilibrium) solubility is the saturation solubility of a compound at the end of the dissolution process, where the dissolved compound is in equilibrium with the undissolved material in excess. The thermodynamic solubility is determined by dispensing a solid compound into a solvent. This is often deemed as the true solubility of the compound and is a critical piece of information in formulation development. The thermodynamic solubility assay (THESA) is a widely used tool for the measurement of equilibrium solubility for the later drug discovery process and is considered as a gold standard solubility assay.
Approximately 1-2 mg of each compound was added into 300 μL of 50 mM phosphate buffer (pH 6.5) at room temperature (22±2° C.). Each sample is placed in a microanalysis tube, which was sonicated for 1 h and shaken for 2 h. All suspensions were left overnight (about 16 h). On the next day, the samples were filtered into a V-bottom plate with a micronic filterplate to separate the solid material from the solution. Then, all solutions were diluted into 96 well V-bottom microplates and analyzed by UPLC-UV. The calibration line was established by UPLC using 5 different dilutions of the compound in a DMSO stock solution, made in micronic tubes (concentration approximately 1 mg/mL). Dilutions took place with DMSO. From this regression equation the solubility of the compound was determined. In cases where the drug was completely dissolved in the buffer, the value for equilibrium solubility was assumed to be higher than the value determined by UPLC and reported as such.

[3] = Dissolution test in fasted state simulated intestinal fluid (FaSSIF); type: physicochemical; settings: FaSSIF pH 6.5, room temperature
Method: 0.420 g of NaOH (pellets), 3.954 g of NaH2PO4 (monohydrate) and 6.186 g of NaCl were dissolved in about 0.9 L of purified water. The pH was adjusted to 6.5 with either 1 N NaOH or 1 N HCl. The total volume of the mixture was made up to 1.0 L with purified water at room temperature.
To about 50 mL of blank FaSSIF buffer was added 0.2240 g of SIF Powder Original (Biorelevant.com Ltd, Product code: FFF03, UK), the mixture was stirred until powder was completely dissolved. The total volume of the mixture was made up to 100 mL with blank FaSSIF buffer at room temperature.
(§1) Approximately 1-2 mg of each compound was added in excess into […] of buffer at room temperature. Each sample is placed in a microanalysis glass tube, which was sonicated for 1 h and agitated for 2 h. All suspensions were left overnight (about 16 h). On the next day, all pH values were measured with a pH-meter and the samples were filtered into a V-bottom plate with a micronic filterplate to separate the solid material from the solution. Then, all solutions were diluted into 96 well V-bottom microplates and analyzed by UPLC-UV.
(§2) The calibration line was established by UPLC using 5 different dilutions of the compound in a DMSO stock solution, made in micronic tubes (concentration approximately 1 mg/mL). Dilutions took place with DMSO (in special circumstances, with acetonitrile, or 80% HCl 0.1 N/20% acetonitrile). From this regression equation the solubility of the compound was determined. In cases where the compound was completely dissolved in the buffer, the value for equilibrium solubility was assumed to be higher than the value determined by UPLC and reported as such.

[4] = Dissolution test in fed state simulated intestinal fluid (FeSSIF); type: physicochemical; settings: FeSSIF pH 5, room temperature
Method: 4.040 g of NaOH (pellets), 8.650 g of glacial acetic acid and 11.874 g of NaCl were dissolved in about 0.9 L of purified water. The pH was adjusted to 5 with either 1 N NaOH or 1 N HCl. The total volume of the mixture was made up to 1.0 L with purified water at room temperature.
To about 50 mL of blank FeSSIF buffer was added 1.120 g of SIF Powder Original (Biorelevant.com Ltd, Product code: FFF03, UK), the mixture was stirred until powder was completely dissolved. The total volume of the mixture was made up to 100 mL with blank FeSSIF buffer at room temperature.
as §1, §2

[5] = target: T1, human TLR7 (Homo sapiens, UniProt Q9NYK1); experiment: HEK293-Blue-hTLR7 cells assay (SEAP reporter, NF-κB activation)
T1 sequence (Q9NYK1 27-1049): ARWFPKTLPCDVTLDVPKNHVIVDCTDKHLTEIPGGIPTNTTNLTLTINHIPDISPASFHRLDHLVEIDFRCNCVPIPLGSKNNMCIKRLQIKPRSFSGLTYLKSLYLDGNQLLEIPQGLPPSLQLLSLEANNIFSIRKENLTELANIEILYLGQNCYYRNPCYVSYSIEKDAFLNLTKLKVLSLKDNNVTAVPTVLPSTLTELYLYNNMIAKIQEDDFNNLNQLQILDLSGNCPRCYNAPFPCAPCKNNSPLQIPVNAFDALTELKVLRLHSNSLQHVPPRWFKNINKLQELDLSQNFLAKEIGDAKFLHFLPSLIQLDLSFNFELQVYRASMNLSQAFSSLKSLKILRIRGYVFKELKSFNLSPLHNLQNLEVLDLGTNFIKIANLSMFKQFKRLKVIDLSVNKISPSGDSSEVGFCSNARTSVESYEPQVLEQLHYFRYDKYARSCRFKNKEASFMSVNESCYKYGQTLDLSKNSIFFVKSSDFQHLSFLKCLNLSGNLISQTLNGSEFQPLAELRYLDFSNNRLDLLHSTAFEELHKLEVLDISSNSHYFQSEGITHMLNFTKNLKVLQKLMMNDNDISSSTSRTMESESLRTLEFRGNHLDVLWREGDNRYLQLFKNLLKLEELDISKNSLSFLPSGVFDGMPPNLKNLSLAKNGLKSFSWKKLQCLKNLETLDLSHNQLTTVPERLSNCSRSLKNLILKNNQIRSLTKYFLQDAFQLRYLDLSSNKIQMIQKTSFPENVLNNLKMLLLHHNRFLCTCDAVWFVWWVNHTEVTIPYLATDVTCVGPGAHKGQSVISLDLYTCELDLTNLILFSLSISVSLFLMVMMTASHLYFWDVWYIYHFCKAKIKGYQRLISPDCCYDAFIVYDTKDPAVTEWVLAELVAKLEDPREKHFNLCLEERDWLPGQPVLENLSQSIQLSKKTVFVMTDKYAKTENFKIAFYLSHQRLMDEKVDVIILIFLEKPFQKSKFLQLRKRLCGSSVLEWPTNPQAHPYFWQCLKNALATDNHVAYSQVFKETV
From the text: A stable HEK293-Blue-h TLR7 cell line was purchased from InvivoGen (Cat. #: hkb-htlr7, San Diego, California, USA). These cells were designed for studying the stimulation of human TLR7 by monitoring the activation of NF-κB. A SEAP (secreted embryonic alkaline phosphatase) reporter gene was placed under the control of the IFN-β minimal promoter fused to five NF-κB and AP-1-binding sites. The SEAP was induced by activating NF-κB and AP-1 via stimulating HEK-Blue hTLR7 cells with TLR7 ligands. Therefore the reporter expression was regulated by the NF-κB promoter upon stimulation of human TLR7 for 20 hrs. The cell culture supernatant SEAP reporter activity was determined using QUANTI-Blue™ kit (Cat. #: rep-qb1, Invivogen, San Diego, Ca, USA) at a wavelength of 640 nm, a detection medium that turns purple or blue in the presence of alkaline phosphatase.
HEK293-Blue-hTLR7 cells were incubated at a density of 250,000˜450,000 cells/mL in a volume of 180 μL in a 96-well plate in Dulbecco's Modified Eagle's medium (DMEM) containing 4.5 g/L glucose, 50 U/mL penicillin, 50 mg/mL streptomycin, 100 mg/mL Normocin, 2 mM L-glutamine, 10% (V/V) heat-inactivated fetal bovine serum for 24 hrs. Then the HEK293-Blue-hTLR7 cells were incubated with addition of 20 μL test compound in a serial dilution in the presence of final DMSO at 1% and perform incubation under 37° C. in a CO2 incubator for 20 hrs.

Compound | solubility kinetic [1] [µg/mL] | solubility thermodynamic [2] [µg/mL] | FaSSIF [3] [µg/mL] | FeSSIF [4] [µg/mL] | EC50 [5] [µM] | EC50 ([5]; read-out: HEK293-Blue-h TLR7 (EC50 (μM)), HEK293-Blue-hTLR7 cells, 20 hrs incubation, SEAP reporter) [µM]
CC[P@@](C)(=O)c1nc(N)c2[nH]c(=O)n(Cc3ccc(NCCN(C)C)nc3)c2n1 [Example 15-A, 6-amino-9-[[6-[2-(dimethylamino)ethylamino]-3-pyridyl]methyl]-2-[(R)-ethyl(methyl)phosphoryl]-7H-purin-8-one] | > 560 | 4060 (≈ 9.7 mM) | 3074 | 3987 | 0.018 | 
CCC[P@](C)(=O)c1nc(N)c2[nH]c(=O)n(Cc3ccc(NCCN(C)C)nc3)c2n1 [Example 18-A, 6-amino-9-[[6-[2-(dimethylamino)ethylamino]-3-pyridyl]methyl]-2-[(S)-methyl(propyl)phosphoryl]-7H-purin-8-one] | > 580 | 3000 (≈ 6.94 mM) | 3436 | 4536 |  | 
CCC[P@@](C)(=O)c1nc(N)c2[nH]c(=O)n(Cc3ccc(NCCN(C)C)nc3)c2n1 [Example 18-B, 6-amino-9-[[6-[2-(dimethylamino)ethylamino]-3-pyridyl]methyl]-2-[(R)-methyl(propyl)phosphoryl]-7H-purin-8-one] | > 580 | 4020 (≈ 9.3 mM) | >3767 | >5000 |  | 
CCCS(=N)(=O)c1nc(N)c2[nH]c(=O)n(Cc3ccc(Cl)nc3)c2n1 (stereo not drawn) [RO14, reference compound] | 69 | 33 (≈ 0.0864 mM) | 14 | 21 |  | 0.017
CC[P@@](C)(=O)c1nc(N)c2[nH]c(=O)n(Cc3ccc(N4CCN(C)CC4)nc3)c2n1 [Example 13-A, 6-amino-2-[(R)-ethyl(methyl)phosphoryl]-9-[[6-(4-methylpiperazin-1-yl)-3-pyridyl]methyl]-7H-purin-8-one] | > 530 | 2380 (≈ 5.53 mM) | 2368 | 4672 |  | 

Continued, in another order:

solubility kinetic [1] [µg/mL] | solubility thermodynamic [2] [µg/mL] | FaSSIF [3] [µg/mL] | FeSSIF [4] [µg/mL] | EC50 [5] [µM] | Compound | EC50 ([5]; read-out: HEK293-Blue-h TLR7 (EC50 (μM)), HEK293-Blue-hTLR7 cells, 20 hrs incubation, SEAP reporter) [µM]
> 560 | 1900 (≈ 4.53 mM) | 1799 | 2371 |  | CC[P@@](C)(=O)c1nc(N)c2[nH]c(=O)n(Cc3ccc(OCCN(C)C)nc3)c2n1 [Example 16-A, 6-amino-9-[[6-[2-(dimethylamino)ethoxy]-3-pyridyl]methyl]-2-[(R)-ethyl(methyl)phosphoryl]-7H-purin-8-one] | 
> 540 | 929 (≈ 2.3 mM) | 2527 | 3077 | 0.034 | CN(C)CCNc1ccc(Cn2c(=O)[nH]c3c(N)nc(P(C)(C)=O)nc32)cn1 [Example 1, 6-amino-9-[[6-[2-(dimethylamino)ethylamino]-3-pyridyl]methyl]-2-dimethylphosphoryl-7H-purin-8-one] | 
> 560 | > 4970 | >3733 | >4267 | 0.012 | CC[P@](C)(=O)c1nc(N)c2[nH]c(=O)n(Cc3ccc(NCCN(C)C)nc3)c2n1 [Example 15-B, 6-amino-9-[[6-[2-(dimethylamino)ethylamino]-3-pyridyl]methyl]-2-[(S)-ethyl(methyl)phosphoryl]-7H-purin-8-one] | 
> 560 | 3450 (≈ 8.23 mM) | 784 | 1464 |  | CC[P@](C)(=O)c1nc(N)c2[nH]c(=O)n(Cc3ccc(OCCN(C)C)nc3)c2n1 [Example 16-B, 6-amino-9-[[6-[2-(dimethylamino)ethoxy]-3-pyridyl]methyl]-2-[(S)-ethyl(methyl)phosphoryl]-7H-purin-8-one] | 
> 540 | 2780 (≈ 6.85 mM) | 3519 | 4801 | 0.019 | CN(C)CCOc1ccc(Cn2c(=O)[nH]c3c(N)nc(P(C)(C)=O)nc32)cn1 [Example 2, 6-amino-9-[[6-[2-(dimethylamino)ethoxy]-3-pyridyl]methyl]-2-dimethylphosphoryl-7H-purin-8-one] | 
